Data from patent US9018258B2, “Substituted 1-benzylcycloalkylcarboxylic acids and the use thereof” (Bayer Intellectual Property GmbH, priority 2010, dated 2015).

What was measured:
GAL4-PPARγ = molecular target: T1, GAL4-PPARγ (Homo sapiens, UniProt P37231); assay: Cellular PPAR transactivation assay, GAL4-PPARγ chimera in CHO-K1 cells; format: cell-based; conditions: for Emax: CHO-K1, maximum effect relative to reference compound (Example 73 of EP 1 452 521-A1 = 100%), read-out: PPARγ efficacy; for EC50: CHO-K1 cells, luciferase reporter, 6 h stimulation
T1 construct: PPARγ (amino acids 203-506); expressed in transfected cells
T1 sequence (P37231 203-505 limits assumed): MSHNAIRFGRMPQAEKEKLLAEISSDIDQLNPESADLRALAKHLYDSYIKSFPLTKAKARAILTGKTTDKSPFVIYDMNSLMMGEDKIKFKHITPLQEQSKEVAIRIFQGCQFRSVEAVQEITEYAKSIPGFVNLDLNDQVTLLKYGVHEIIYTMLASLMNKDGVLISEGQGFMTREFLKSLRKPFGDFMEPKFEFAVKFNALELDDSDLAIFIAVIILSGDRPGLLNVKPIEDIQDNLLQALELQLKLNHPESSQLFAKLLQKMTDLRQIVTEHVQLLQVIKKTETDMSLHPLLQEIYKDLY
How it was run: (§1)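 CHO-K1 cells stably expressing GAL4 DNA-binding domain fused to the human PPAR ligand-binding domain (α aa 167-468, γ aa 203-506, δ aa 138-442) plus a GAL4-driven firefly luciferase reporter. Compounds added in serum-free medium for 6 h; EC50 from luminescence curves. Efficacy in % of a pan-PPAR agonist reference set as 100%.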

GAL4-PPARδ = molecular target: T2, GAL4-PPARδ (Homo sapiens, UniProt Q03181); assay: Cellular PPAR transactivation assay, GAL4-PPARδ chimera in CHO-K1 cells; format: cell-based; conditions: for Emax: CHO-K1, maximum effect relative to reference compound (Example 73 of EP 1 452 521-A1 = 100%), read-out: PPARδ efficacy; for EC50: CHO-K1 cells, luciferase reporter, 6 h stimulation
T2 construct: PPARδ (amino acids 138-442); expressed in transfected cells
T2 sequence (Q03181 138-441 limits assumed): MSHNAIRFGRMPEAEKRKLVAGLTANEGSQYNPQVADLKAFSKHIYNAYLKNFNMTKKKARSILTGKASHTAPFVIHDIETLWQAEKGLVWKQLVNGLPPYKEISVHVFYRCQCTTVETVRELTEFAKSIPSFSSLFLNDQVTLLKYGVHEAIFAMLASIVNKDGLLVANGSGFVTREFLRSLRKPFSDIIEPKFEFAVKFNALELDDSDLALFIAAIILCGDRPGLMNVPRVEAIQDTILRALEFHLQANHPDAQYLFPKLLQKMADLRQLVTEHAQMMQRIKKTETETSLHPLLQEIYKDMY
How it was run: as §1

saphenous artery = assay: Vasorelaxant effect in vitro (phenylephrine-contracted saphenous artery rings); design: species or system Rabbits; conditions: Oryctolagus cuniculus; rabbit saphenous artery rings, phenylephrine-induced contraction
Protocol: Rabbits are anaesthetized and sacrificed by intravenous injection of thiopental sodium (about 50 mg/kg) and exsanguinated. The saphenous artery is removed and divided into rings 3 mm wide. the rings are mounted singly on in each case a pair of triangular hooks open at the end and made of 0.3 mm-thick special wire (Remanium®). Each ring is placed under an initial tension in 5 ml organ baths with Krebs-Henseleit solution which is at 37° C., is gassed with carbogen and has the following composition: NaCl 119 mM; KCl 4.8 mM; CaCl2×2 H2O 1 mM; MgSO4×7 H2O 1.4 mM; KH2PO4 1.2 mM; NaHCO3 25 mM; glucose 10 mM; bovine serum albumin 0.001%. The force of contraction is detected with Statham UC2 cells, amplified and digitized via A/D converters (DAS-1802 HC, Keithley Instruments, Munich) and recorded in parallel on chart recorders. Contractions are induced by addition of phenylephrine.
After several (generally 4) control cycles, the substance to be investigated is added in each further run in increasing dosage, and the level of the contraction achieved under the influence of the test substance is compared with the level of the contraction reached in the last preceding run. The concentration necessary to reduce the contraction reached in the preceding control by 50% is calculated from this (IC50). The standard application volume is 5 μl. The proportion of DMSO in the bath solution corresponds to 0.1%.

| Emax (GAL4-PPARγ) [%] | EC50 (GAL4-PPARγ) [nM] | Emax (GAL4-PPARδ) [%] | EC50 (GAL4-PPARδ) [nM] | IC50 (saphenous artery) [nM] | Compound |
| --- | --- | --- | --- | --- | --- |
| 0 | > 10000 | 0 | > 10000 |  | [2H]C([2H])([2H])OC(c1ccc(Cl)c(NC(=O)[C@H](c2ccc(Cl)cc2)[C@@H](C)C(F)(F)F)c1)C1(C(=O)O)CC1 (single isomer, unassigned; (+)) [Example 99] |
| 20 | 2300 | 0 | > 10000 | 606 | C[C@H]([C@H](C(=O)Nc1cc(CC2(C(=O)O)CC2)ccc1Cl)c1ccc(Cl)c(F)c1)C(F)(F)F [Example 30, (+)-1-(4-chloro-3-{[(2S,3R)-2-(4-chloro-3-fluoro-phenyl)-4,4,4-trifluoro-3-methylbutanoyl]amino}-benzyl)cyclopropanecarboxylic acid] |
| 45 | 3000 | 0 | > 10000 | 145 | C[C@H]([C@H](C(=O)Nc1cc(CC2(C(=O)O)CC2)ccc1Cl)c1ccc(Cl)cc1)C(F)(F)F [Example 50, (+)-1-(4-Chloro-3-{[(2S,3R)-2-(4-chlorophenyl)-4,4,4-trifluoro-3-methylbutanoyl]amino}benzyl)-cyclopropanecarboxylic acid] |
| 0 | > 10000 | 0 | > 10000 | 685 | CCOC(c1ccc(Cl)c(NC(=O)[C@H](c2ccc(Cl)cc2)[C@@H](C)C(F)(F)F)c1)C1(C(=O)O)CC1 (single isomer, unassigned) [Example 101] |
